Laboratory results from patent publication US20040005294A1, “IGFBP-3 in the diagnosis and treatment of cancer” (priority 2002, published 2004).

Experiments:
Format in all cases: cell-based, human
squamous HBE cells = assay: MTT proliferation assay, squamous HBE cells; conditions: 1 day
ERK1/2 in 1799 cells = assay: Immune complex kinase assay for ERK1/2; conditions: 10^−7 M, 0-24 h, then 50 ng/mL IGF-I for 15 min
Method: Approximately 5×10^6 1799 cells were treated with 10^−7 M deguelin or 0.1% DMSO for various time periods in the absence of any additional stimulatory growth factors. The cells were then treated with 50 ng/mL IGF-I for 15 minutes to activate MAPK. Total cell extracts were prepared in lysis buffer (Lonardo et al. 2002), and ERK-1/2 or c-Jun N-terminal kinase (JNK) were immunoprecipitated from 100 μg of each cell extract using antibodies (1 μg) that recognize ERK1/2 or JNK (Santa Cruz Biotechnology) and protein-A sepharose beads (20 μL) (Amersham Pharmacia Biotech). Kinase assays were performed by incubating the beads with 30 μL of kinase buffer to which 5 μCi of [γ^32P]ATP (2000 cpm/pmol) and 1 μg of substrate (myelin basic protein [MBP; Calbiochem, La Jolla, Calif.] or GST-cJun [Santa Cruz Biotechnology]) were added, as previously described (Lee et al., 2002). The samples were suspended in Laemmli buffer, boiled for 5 min, and then analyzed by SDS-polyacrylamide gel clectrophoresis. The gel was dried and autoradiographed. Total cell lysates from Jurkat cells (Upstate Biotechnology, Inc.) and H1299 NSCLC treated with 50 ng/mL IGF-I for 15 min were used as positive controls. Changes in the level of phosphorylation in MBP or GST-cJun reflect changes in Erk1/2 and JNK activity, respectively.

[1] = system: 1799, 1198 and 1170-1 cells; assay: Cell cycle analysis by flow cytometry, HBE cell lines; conditions: 10^−8 M or 10^−7 M, 3 days
Method: NHBE and 1799 cells were plated at a concentration of 2×10^5 cells/well in six-well plates. The next day, cells were treated with deguelin (various concentrations) or DMSO (0.1%) for 3 days to achieve maximal antiproliferative effects (determined from growth curves). All cells (nonadherent and adherent) were harvested, fixed with 1% paraformaldehyde and 70% ethanol, stained with 50 μg/mL propidium iodide, and subjected to flow cytometric analysis to determine the percentage of cells in specific phases of the cell cycle (G1, S, and G2/M) as described (Sun et al., 1997). Flow cytometric analysis was performed using a Coulter EPICS Profile II flow cytometer (Coulter Corp., Miami, Fla.) equipped with a 488-nm argon laser. Approximately 10 000 events (cells) were evaluated for each sample. Two independent experiments were performed and one is presented.

COc1cc2c(cc1OC)[C@@H]1C(=O)c3ccc4c(c3O[C@@H]1CO2)C=CC(C)(C)O4 [deguelin, Deguelin]
proliferation of control squamous HBE cells (squamous HBE cells; 10^−7 M or 10^−6 M): decreased proliferation of control squamous HBE cells in a dose-dependent manner | growth as percent of untreated cells (squamous HBE cells; squamous HBE cells overexpressing constitutively active Akt, 10^−7 M to 10^−6 M): approximately 95% | ERK1/2 activity (ERK1/2 in 1799 cells): no discernible effect | cell cycle distribution [1]: accumulated in the G2/M phase
